Where “and” joins values, the source holds several entries; their conditions need not be identical. Equal entries are not always repeated. Entries after “also recorded” stand apart in the source; their conditions may differ. Where no end group is shown, it is not given here. [ ]: non-standard residue; d: D form. pGlu = O=C1CC[C@@H](C(=O)O)N1
Columns and labels:
[1] = system: active hair follicles; details: topically applied to rodent skin; cited from earlier work
[2] = system: inactive hair follicles; experiment: Inventor's observation: activation of inactive hair follicles; details: in vivo
[3] = system: hair follicles; details: active hair follicles that entered catagen; US 2011/0281802; cited from earlier work
[4] = system: hair follicles; experiment: Clinical trial using topical zinc thymulin: number of active hair follicles in a set scalp area; assay type: in vivo, Human
Protocol: The area near the marker affected by hair loss was photographed using a Samsung Galaxy Note 4 camera with settings F2.2, focal length 31 mm, LED flash and the number of active hair follicles in a set area were quantified.
The aqueous spray formulation prepared in Example 2 was administered topically to the scalp of the trial subjects twice daily to the hair loss region(s) of the scalp. The formulation used for subjects 1, 2 and 3 contained 0.00005% LKKTETQ peptide (molecular weight 846.48).
At 16 weeks for subject 1 and 12 weeks for subjects 2, 3 and 4, the number of active hair follicles in the set area was quantified again. Multiple set areas of hair loss were evaluated for trial subjects 1, 2 and 3. These areas are designated “a” and “b” in Table 2 and Table 3.

[5] = system: adult subjects with a diagnosis of AGA; experiment: Further clinical trial, numbered visual analog scale (VAS) global hair assessment; assay type: in vivo, human; details: for VAS after treatment: scale 0-10, one value per subject 1-18, 0.0005% spray twice daily, 4-10 months
Source text: (§1) Eighteen consecutive adult subjects were recruited, 17 males and 1 female, age range 35-90 years (mean 55.4, SD 13.3) with a diagnosis of AGA, Norwood classification 2-7, and hair loss duration range of 3-40 years (mean 15.8, SD 9.6). The trial duration for each subject ranged from 4-10 months. The test compound ZT was synthesized by standard Fmoc peptide protocols and administered in water based topical spray to the scalp. Baseline and after treatment images for hair growth were graded by two blinded assessors using two validated scales: 1. numerical visual analog scale (VAS) for global assessment 2. hair growth index (HGI) of images under higher magnification for percentage changes of vellus, intermediate and terminal hair.
(§2) Male and female adult subjects with a diagnosis of AGA were invited to participate in the study. Each subject provided written informed consent except the subject who gave verbal consent as they were unable to provide written consent due to arthritis of the hand. The study was conducted in compliance with the Declaration of Helsinki, International Conference on Harmonization Good Clinical Practice guidelines. Eighteen consecutive adult subjects were recruited (17 males and 1 […]) with an age range 35-90 years (mean 55.4, SD 13.3) with a diagnosis of AGA Norwood-Hamilton classification 2-7, and with a hair loss history ranging from 3-40 years (mean 15.8, SD 9.6). Entry time points of the volunteers occurred over 6 months with the trial completed at the same endpoint resulting in duration of treatment for subjects in the trial ranging from 4-10 months.
(§3) The product given to subjects was a 100 ml spray bottle containing 0.0005% ZT as the active test agent. Subjects were instructed to spray 1-2 ml of solution, twice daily, and rub into the scalp. The spray bottle solution was to be kept away from direct sunlight and heat. Subjects were resupplied with fresh solutions every 6-8 weeks during the trial.
(§4) Images were captured on a Samsung Galaxy Note 4 phone in high resolution (16 MB image) with flash, F 2.2 and focal length 31 mm. For assessment, baseline and after treatment images were de-identified, paired and randomly allocated with respect to left/right sides. Images were presented for analysis to assessors in Powerpoint format files on a 55 inch high resolution television screen. All images and original assessor scorecards were archived in PDF format for external reviewer confirmation.
1. Numbered visual analog scale (VAS) where the assessor gives a value between 0-10 of the image (0=total absence of hair, 10=full abundant hair) (Price, 2008).
(§5) Assessment was graded by two independent assessors in a single blind manner. Assessors underwent three training sessions over two weeks prior to the final evaluation.

[6] = system: adult subjects with a diagnosis of AGA; experiment: Further clinical trial, Hair Growth Index (HGI) of magnified images; assay type: in vivo, human; details: for HGI adjusted score A (absent) after: raw % multiplied by 0; for HGI raw score % A (absent) after / HGI raw score % I (intermediate) after / HGI raw score % T (terminal) after / HGI raw score % V (vellus) after: per subject, after trial completion
Source text: as §1, §2, §3, §4
2. Hair Growth Index (HGI) that is a more in-depth scale of analysis where higher magnification of images can identify the four types of hair regrowth that are designated as absent, vellus, intermediate or terminal (Bernado, 2003). For each image these four growth stages are given percentage values that added together give a raw score total of 100%. Each percentage value for absent, vellus, intermediate, and terminal are multiplied by 0,1,2,3 respectively to yield a final adjusted score ranging from a possible minimum score of 0 (total absence of hair) to a maximum score of 300 (full terminal hair). Scores were pooled for paired t-test, and P<0.05 was established for significance.
as §5

[7] = system: adult subjects with a diagnosis of AGA; experiment: Further clinical trial, safety: side effects and drug interaction; assay type: in vivo, human; details: listed as ZT
Source text: as §1, §2, §3

[8] = system: scalp of subject #17; experiment: Fluorescence spectroscopy procedure of the scalp; assay type: in vivo, human; details: subject #17 (30 year hair loss); 6 pre-existing terminal hairs under visible white LED light
Source text: To confirm this effect subject #17 (30 year hair loss) underwent a fluorescence spectroscopy procedure of the scalp. […] Supporting evidence was seen when comparing the assessor pooled responses of ‘total absent hair’ where 65% (13/20) of subjects improved.

[9] = all 7 subject areas, 12-16 weeks
[10] = subject 4, 12 weeks, spray without LKKTETQ peptide

LKKTETQ [leucine-leucine-lysine-threonine-glutamic acid-threonine-glutamine, added at 0.00005% (amidated & acetylated) to the spray of subjects 1-3]
hair growth [1]: promotes hair growth from existing active hair follicles

pyrGlu-Ala-Lys-Ser-Gln-Gly-Gly-Ser-Asn ([pGlu]AKSQGGSN) [thymulin, nonapeptide produced by the thymus gland, CAS 63958-90-7, reference compound]
activation of inactive hair follicles [2]: does not significantly activate inactive hair follicles | hair shaft formation [3]: inhibit hair shaft formation

zinc thymulin: zinc complex of amidated and acetylated thymulin H3CC(O)-Pyr-Glu-Ala-Lys-Ser-Gln-Gly-Gly-Ser-Asn-NH2; tested as 0.0005% water based topical spray (Ac-[pGlu]AKSQGGSN-NH2; also: zinc complex)
Percentage increase in active hair follicles, Average increase [4, 9]: 80% | Percentage increase in active hair follicles, Range [4, 9]: 6-200% | Number of active hair follicles after treatment per cm^2 ([4]; subject 1 (areas a, b), 16 weeks, spray with LKKTETQ peptide): 21 per cm^2 and 24 per cm^2 | Number of active hair follicles after treatment ([4]; subject 1 (areas a, b), 16 weeks, twice daily topical 0.0005% spray also containing 0.00005% LKKTETQ peptide): 36 and 48 | Number of active hair follicles after treatment per cm^2 [4, 10]: 38 per cm^2 | Percentage increase in active hair follicles [4, 10]: 135% | Number of active hair follicles after treatment ([4]; subject 4, 12 weeks, twice daily topical 0.0005% spray without LKKTETQ peptide): 40 | VAS hair assessment improvement ([5]; 11 subjects who completed at least 6 months of treatment, listed as ZT): significant growth | VAS after treatment ([5]; Assessor #1): 6 (3×) and 8 (10×) and 9 (3×) and 7 (2×) | VAS after treatment ([5]; Assessor #2): 6 (5×) and 8 (5×) and 7 (3×) and 4 and 9 (2×) and 5 (2×) | VAS hair growth ([5]; total group (18 subjects) at the end of the trial): no significant growth | assessor pooled responses of 'total absent hair' improved ([6]; 13/20 pooled responses): 65% | HGI adjusted score A (absent) after ([6]; Assessor #1): 0 | HGI adjusted score A (absent) after ([6]; Assessor #2): 0 | HGI adjusted score I (intermediate) after ([6]; Assessor #2, raw % multiplied by 2, listed as ZT): 60 and 40 | average increase of intermediate type hairs ([6]; HGI assessment, at 6 months): 23% | average increase of vellus type hairs ([6]; HGI assessment, at 6 months): 32% | number of newly observed intermediate hairs in previous absent hair regions ([6]; HGI assessment, listed as ZT): significant increase; also recorded: highly significant increased number | HGI raw score % A (absent) after ([6]; assessor A#1, listed as ZT): 50% (3×) and 40% (4×) and 15% and 20% (2×) | HGI raw score % I (intermediate) after ([6]; assessor A#1, listed as ZT): 20% (2×) and 15% and 10% (2×) and 25% (5×) | HGI raw score % T (terminal) after ([6]; assessor A#1, listed as ZT): 20% (2×) and 30% (3×) and 15% and 10% (2×) and 55% and 60% | HGI raw score % V (vellus) after ([6]; assessor A#1, listed as ZT): 10% (3×) and 20% (2×) and 25% (3×) and 15% and 5% | HGI raw score % A (absent) after ([6]; assessor A#2, listed as ZT): 20% and 30% (3×) and 10% (3×) and 40% (2×) and 50% | HGI raw score % I (intermediate) after ([6]; assessor A#2, listed as ZT): 30% (6×) and 20% (4×) | HGI raw score % T (terminal) after ([6]; assessor A#2, listed as ZT): 20% (4×) and 30% (2×) and 40% and 10% (2×) and 60% | HGI raw score % V (vellus) after ([6]; assessor A#2, listed as ZT): 30% (3×) and 20% (3×) and 0% and 40% and 10% (2×) | Melanogenesis ([6]; higher magnification images, several (older) subjects, listed as ZT): Melanogenesis was observed in several subjects; also recorded: clearly observed | adverse systemic effects or local side effects (redness, scalp irritation) ([7]; 18 subjects, topical 0.0005% spray, total of 3,300 treatment days): no adverse systemic effects or local side effects of redness or scalp irritation; also recorded: no redness, scalp irritation or deterioration of hair color, quality or quantity | side effects reported in the entire study ([7]; 18 test subjects, total of 111 months (~3,300 days), attributed to a non-active constituent (citric acid buffer)): Only one side effect; also recorded: only one side effect from a non-active constituent | drug interaction with ZT ([7]; three subjects concurrently using minoxidil (N=2) and minoxidil/finasteride (N=1)): did not report any drug interaction; also recorded: no observable drug interaction | additional developing vellus hairs revealed by spectroscopy [8]: 59 | activation of inactive hair follicles [2]: effective

Reference: patent publication US20190091494A1, “PEPTIDES FOR HAIR GROWTH” (Clinical Stem Cells Pty Ltd, priority 2016, published 2019)
